The source made the active and inactive calls. No cut-off for these calls is given here.
Columns and labels:
[1] = Growth inhibition of human […] cells after 48 hrs by sulforhodamine B assay; assay type: functional
UACC-62 = test: Growth inhibition of human UACC62 cells after 48 hrs by sulforhodamine B assay; assay type: functional; details: UACC-62, 48 h
NCI-H226 = test: Growth inhibition of human NCI-H226 cells after 48 hrs by sulforhodamine B assay; assay type: functional; details: NCI-H226, 48 h
SK-MEL-5 = test: Growth inhibition of human SK-MEL-5 cells after 48 hrs by sulforhodamine B assay; assay type: functional; details: SK-MEL-5, 48 h
M14 = test: Growth inhibition of human M14 cells after 48 hrs by sulforhodamine B assay; assay type: functional; details: M14, 48 h
KETR3 = test: Cytotoxicity against human Ketr3 cells after 72 hrs by MTT assay; assay type: functional, cell-based
NCI-H322M = test: Growth inhibition of human NCI-H322M cells after 48 hrs by sulforhodamine B assay; assay type: functional
NCI-H23 = test: Growth inhibition of human NCI-H23 cells after 48 hrs by sulforhodamine B assay; assay type: functional; details: NCI-H23, 48 h
[2] = system: Lewis lung carcinoma cell line; test: Antitumor activity against mouse LLC cells xenografted in C57BL/6 mouse assessed as tumor growth inhibition at 10 mg/kg, ip qd for 15 days relative to control; assay type: functional; details: 360 h, route intraperitoneal, read-out: GI
NCI-H460 [3] = test: Antitumor activity against human H460 cells xenografted in nu/nu BALB/c mouse assessed as tumor growth inhibition at 20 mg/kg, ip qd for 24 days measured on day 25 relative to control; assay type: functional; details: route intraperitoneal, read-out: GI
SF-539 = test: Growth inhibition of human SF539 cells after 48 hrs by sulforhodamine B assay; assay type: functional; details: SF-539, 48 h
HCT-8 = test: Cytotoxicity against human HCT8 cells after 72 hrs by MTT assay; assay type: functional, cell-based
Malme-3M = test: Growth inhibition of human MALME-3M cells after 48 hrs by sulforhodamine B assay; assay type: functional
EKVX = test: Growth inhibition of human EKVX cells after 48 hrs by sulforhodamine B assay; assay type: functional
RXF 393 = test: Growth inhibition of human RXF393 cells after 48 hrs by sulforhodamine B assay; assay type: functional; details: RXF 393, 48 h
UO-31 = test: Growth inhibition of human UO31 cells after 48 hrs by sulforhodamine B assay; assay type: functional; details: UO-31, 48 h
NCI/ADR-RES = test: Growth inhibition of human NCI/ADR-RES cells after 48 hrs by sulforhodamine B assay; assay type: functional
HeLa = test: Cytotoxicity against human HeLa cells after 72 hrs by MTT assay; assay type: functional, cell-based
HOP-92 = test: Growth inhibition of human HOP92 cells after 48 hrs by sulforhodamine B assay; assay type: functional; details: HOP-92, 48 h
CAKI-1 = test: Growth inhibition of human Caki1 cells after 48 hrs by sulforhodamine B assay; assay type: functional; details: CAKI-1, 48 h
Mus musculus [4] = test: Antimetastatic activity against mouse 4T1 cells xenografted in BALB/c mouse assessed as reduction of TGFbeta mRNA expression in tumor at 5 mg/kg, ip qd for 23 days by RT-PCR analysis; assay type: functional, organism-based; set-up: dose 5 mg/kg
Mus musculus [5] = test: Toxicity in human cancer cells xenografted in nu/nu BALB/c mouse assessed as body weight loss at 5 to 30 mg/kg, ip qd for 24 days; assay type: organism-based, Cancer cell lines; set-up: dose 5-30 mg/kg, route intraperitoneal; details: in vivo, 576 h
A549 = test: Antitumor activity against human A549 cells xenografted in nu/nu BALB/c mouse assessed as tumor growth inhibition at 30 mg/kg, ip qd for 12 days measured on day 25 relative to control; assay type: functional; details: route intraperitoneal, read-out: GI
SK-MEL-28 = test: Growth inhibition of human SK-MEL-28 cells after 48 hrs by sulforhodamine B assay; assay type: functional; details: SK-MEL-28, 48 h
NCI-H522 = test: Growth inhibition of human NCI-H522 cells after 48 hrs by sulforhodamine B assay; assay type: functional; details: NCI-H522, 48 h
4T1 = test: Antimetastatic activity against mouse 4T1 cells xenografted in […] mouse assessed as inhibition of lung metastasis at 2.5 to 10 mg/kg, ip qd for 28 days; assay type: functional, organism-based
SN12C = test: Growth inhibition of human SN12C cells after 48 hrs by sulforhodamine B assay; assay type: functional
NCI-H1975 = test: Antitumor activity against human NCI-H1975 cells xenografted in nu/nu BALB/c mouse assessed as tumor growth inhibition at 30 mg/kg, ip qd for 12 days measured on day 25 relative to control; assay type: functional; details: route intraperitoneal, read-out: GI
Mus musculus [6] = test: Antimetastatic activity against mouse 4T1 cells xenografted in BALB/c mouse assessed as reduction of myeloid derived suppressor cells accumulation in bone marrow at 5 mg/kg, ip qd for 23 days by flow cytometry analysis relative to control; assay type: functional; set-up: scale not given: the % may be the effect or the level left; details: route intraperitoneal
MDA-MB-468 = test: Growth inhibition of human MDA-MB-468 cells after 48 hrs by sulforhodamine B assay; assay type: functional; details: MDA-MB-468, 48 h
NCI-H460 [7] = test: Growth inhibition of human NCI-H460 cells after 48 hrs by sulforhodamine B assay; assay type: functional; details: NCI-H460, 48 h
TK-10 = test: Growth inhibition of human TK10 cells after 48 hrs by sulforhodamine B assay; assay type: functional; details: TK-10, 48 h
IGROV-1 = test: Growth inhibition of human IGROV1 cells after 48 hrs by sulforhodamine B assay; assay type: functional; details: IGROV-1, 48 h
MDA-MB-231 [8] = test: Antitumor activity against human MDA-MB-231 cells xenografted in nu/nu BALB/c mouse assessed as tumor growth inhibition at 10 mg/kg, ip qd for 24 days measured on day 25 relative to control; assay type: functional; details: MDA-MB-231, ip, route intraperitoneal, read-out: GI
Mus musculus [9] = test: Toxicity in mouse 4T1 cells xenografted […] mouse assessed as decrease in body weight at 2.5 to 10 mg/kg, ip qd for 28 days; assay type: organism-based; set-up: dose 2.5-10 mg/kg, route intraperitoneal; details: in vivo, 672 h
MDA-MB-231 [10] = test: Antitumor activity against human MDA-MB-231 cells xenografted in nu/nu BALB/c mouse assessed as tumor growth inhibition at 20 mg/kg, ip qd for 24 days measured on day 25 relative to control; assay type: functional; details: MDA-MB-231, ip, route intraperitoneal, read-out: GI
A2780 = test: Antitumor activity against human A2780 cells xenografted in nu/nu BALB/c mouse assessed as tumor growth inhibition at 30 mg/kg, ip qd for 12 days measured on day 25 relative to control; assay type: functional; details: route intraperitoneal, read-out: GI
MOLT-4 = test: Growth inhibition of human MOLT4 cells after 48 hrs by sulforhodamine B assay; assay type: functional; details: MOLT-4, 48 h
Mus musculus [11] = test: Antimetastatic activity against mouse 4T1 cells xenografted in BALB/c mouse assessed as reduction of MMP9 mRNA expression in tumor at 5 mg/kg, ip qd for 23 days by RT-PCR analysis; assay type: functional, organism-based; set-up: dose 5 mg/kg
HCT-15 = test: Growth inhibition of human HCT15 cells after 48 hrs by sulforhodamine B assay; assay type: functional; details: HCT-15, 48 h
UACC-257 = test: Growth inhibition of human UACC257 cells after 48 hrs by sulforhodamine B assay; assay type: functional; details: UACC-257, 48 h

With `CC(=O)O[C@H]1C(=O)[C@@]2(C)[C@H]([C@H](OC(=O)c3ccccc3)[C@]3(O)C[C@H](OC(=O)[C@H](OC(=O)CCC(=O)NCCCC[C@H](NC(=O)CC[C@H](NC(=O)[C@H](C)NC(=O)/C=C/c4ccc(Cl)cc4)C(N)=O)C(N)=O)[C@H](NC(=O)c4ccccc4)c4ccccc4)C(C)=C1C3(C)C)[C@]1(OC(C)=O)CO[C@@H]1C[C@@H]2O` the GI50 [1] was < 10 nM, the GI50 (UACC-62) was < 10 nM and the GI50 (NCI-H226) was < 10 nM. The GI50 (SK-MEL-5) was < 10 nM, the GI50 (M14) was < 10 nM and the Activity (KETR3) was “Active”. The GI50 (NCI-H322M) was < 10 nM, the GI50 (NCI-H23) was < 10 nM and the inhibition in vivo at 10 mg/kg [2] was 33.1%. The inhibition in vivo at 20 mg/kg (NCI-H460 [3]) was 52.9%, the GI50 (SF-539) was < 10 nM and the Activity (HCT-8) was “Active”. For the same compound, the GI50 (Malme-3M) was < 10 nM, the GI50 (EKVX) was < 10 nM and the GI50 (RXF 393) was < 10 nM. The GI50 (UO-31) was < 10 nM, the GI50 (NCI/ADR-RES) was < 10 nM and the Activity (HeLa) was “Active”. For the same compound, the GI50 (HOP-92) was < 10 nM, the GI50 (CAKI-1) was < 10 nM and the Activity (Mus musculus [4]) was “Active”. The Activity (Mus musculus [5]) was “Non-toxic”, the inhibition in vivo at 30 mg/kg (A549) was 79.9% and the GI50 (SK-MEL-28) was < 10 nM. The GI50 (NCI-H522) was < 10 nM, the “growth inhibition (GI)” value (4T1) was “Active” and the GI50 (SN12C) was < 10 nM. The inhibition in vivo at 30 mg/kg (NCI-H1975) was 93.1%, the Activity (Mus musculus [6]) was 45.3% and the GI50 (MDA-MB-468) was < 10 nM. For the same compound, the GI50 (NCI-H460 [7]) was < 10 nM, the GI50 (TK-10) was < 10 nM and the GI50 (IGROV-1) was < 10 nM. For the same compound, the inhibition in vivo at 10 mg/kg (MDA-MB-231 [8]) was 37.3%, the Activity (Mus musculus [9]) was “Non-toxic” and the inhibition in vivo at 20 mg/kg (MDA-MB-231 [10]) was 72.2%. The inhibition in vivo at 30 mg/kg (A2780) was 45.2%, the GI50 (MOLT-4) was < 10 nM and the Activity (Mus musculus [11]) was “Active”. The GI50 (HCT-15) was < 10 nM and the GI50 (UACC-257) was < 10 nM.

From ChEMBL document CHEMBL1773045, “Conjugate (MTC-220) of muramyl dipeptide analogue and paclitaxel prevents both tumor growth and metastasis in mice” (J Med Chem, 2011)
